Test system: SEM cells
Assay: cell viability relative to DMSO control; higher = less cytotoxic
Details: 48 h
Summary of the method: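 Library compounds in DMSO were pin-dosed in an 11-point threefold series (47 μM to 0.79 nM) onto leukemia cells in 1536-well plates (5 μl). Plates held 500 cells/well of NOMO1 or SEM or 1000 cells/well of P12-Ichikawa, each adapted for at least four passages in each medium. Luminescence was read with CellTiter-Glo One after 48 h at 37°C. Viability means the per-plate percentage relative to DMSO wells, using cell-free wells as background.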

[1] = HPLM + 10% dialyzed FBS, 0.000781 µM
[2] = HPLM + 10% dialyzed FBS, 0.00234 µM
[3] = HPLM + 10% dialyzed FBS, 0.00702 µM
[4] = HPLM + 10% dialyzed FBS, 0.0211 µM
[5] = HPLM + 10% dialyzed FBS, 0.0632 µM
[6] = HPLM + 10% dialyzed FBS, 0.19 µM
[7] = HPLM + 10% dialyzed FBS, 0.569 µM
[8] = HPLM + 10% dialyzed FBS, 1.71 µM
[9] = HPLM + 10% dialyzed FBS, 5.12 µM
[10] = HPLM + 10% dialyzed FBS, 15.4 µM
[11] = HPLM + 10% dialyzed FBS, 46.1 µM
[12] = RPMI 5 mM glucose + 10% FBS, 0.000781 µM
[13] = RPMI 5 mM glucose + 10% FBS, 0.00234 µM
[14] = RPMI 5 mM glucose + 10% FBS, 0.00702 µM
[15] = RPMI 5 mM glucose + 10% FBS, 0.0211 µM
[16] = RPMI 5 mM glucose + 10% FBS, 0.0632 µM
[17] = RPMI 5 mM glucose + 10% FBS, 0.19 µM
[18] = RPMI 5 mM glucose + 10% FBS, 0.569 µM
[19] = RPMI 5 mM glucose + 10% FBS, 1.71 µM
[20] = RPMI 5 mM glucose + 10% FBS, 5.12 µM
[21] = RPMI 5 mM glucose + 10% FBS, 15.4 µM
[22] = RPMI 5 mM glucose + 10% FBS, 46.1 µM
[23] = RPMI 5 mM glucose + 10% dialyzed FBS, 0.000781 µM
[24] = RPMI 5 mM glucose + 10% dialyzed FBS, 0.00234 µM
[25] = RPMI 5 mM glucose + 10% dialyzed FBS, 0.00702 µM
[26] = RPMI 5 mM glucose + 10% dialyzed FBS, 0.0211 µM
[27] = RPMI 5 mM glucose + 10% dialyzed FBS, 0.0632 µM
[28] = RPMI 5 mM glucose + 10% dialyzed FBS, 0.19 µM
[29] = RPMI 5 mM glucose + 10% dialyzed FBS, 0.569 µM
[30] = RPMI 5 mM glucose + 10% dialyzed FBS, 1.71 µM
[31] = RPMI 5 mM glucose + 10% dialyzed FBS, 5.12 µM
[32] = RPMI 5 mM glucose + 10% dialyzed FBS, 15.4 µM
[33] = RPMI 5 mM glucose + 10% dialyzed FBS, 46.1 µM

Row | SMILES | cell viability [1] | cell viability [2] | cell viability [3] | cell viability [4] | cell viability [5] | cell viability [6] | cell viability [7] | cell viability [8] | cell viability [9] | cell viability [10] | cell viability [11] | cell viability [12] | cell viability [13] | cell viability [14] | cell viability [15] | cell viability [16] | cell viability [17] | cell viability [18] | cell viability [19] | cell viability [20] | cell viability [21] | cell viability [22] | cell viability [23] | cell viability [24] | cell viability [25] | cell viability [26] | cell viability [27] | cell viability [28] | cell viability [29] | cell viability [30] | cell viability [31] | cell viability [32] | cell viability [33]
1 | CCc1cccc2c3c([nH]c12)C(CC)(CC(=O)O)OCC3 (centres undefined) | 105% | 90.9% | 105% | 112% | 101% | 120% | 114% | 108% | 103% | 47.2% | 103% | 83.6% | 37.6% | 85.4% | 96.2% | 98% | 87.6% | 105% | 102% | 105% | 40.7% | 91.9% | 94.2% | 93% | 102% | 107% | 112% | 103% | 102% | 110% | 105% | 34.7% | 89.4%
2 | CC[C@H](NC(C)C)[C@H](O)c1ccc(O)c2[nH]c(=O)ccc12 | 75.6% | 90.5% | 101% | 92.8% | 89.3% | 100% | 94.6% | 98.1% | 98.5% | 98.8% | 68.4% | 89.2% | 112% | 96.9% | 107% | 109% | 98.1% | 108% | 100% | 104% | 106% | 79.3% | 100% | 87.5% | 98% | 109% | 119% | 109% | 125% | 105% | 113% | 98.9% | 85.5%
3 | O=C(O)CCNc1cc(N2CCc3ccccc3CC2)nc(-c2ccccn2)n1 | 123% | 120% | 130% | 127% | 139% | 144% | 129% | 133% | 121% | 129% | 139% | 105% | 124% | 123% | 118% | 121% | 103% | 103% | 95.9% | 99.2% | 115% | 76.9% | 112% | 116% | 127% | 110% | 116% | 120% | 130% | 112% | 101% | 120% | 99.6%
4 | FC(F)(F)C1=CC=C2C(SCCCCCO\C3=C\O\C(CN4CCOCC4)=C/C3=O)=CC=NC2=C1 | 92.4% | 106% | 107% | 106% | 108% | 115% | 111% | 119% | 112% | 106% | 96.2% | 66.6% | 74.4% | 69% | 67.2% | 63.7% | 72.9% | 77.8% | 65.4% | 66.1% | 69.4% | 61.9% | 112% | 113% | 104% | 110% | 102% | 112% | 115% | 110% | 99% | 102% | 85.7%
5 | CCNC(=O)Nc1ccc(-c2nc3c(c(N4CCOC[C@@H]4C)n2)CCN(C2COC2)C3)cc1 | 96.1% | 116% | 111% | 113% | 108% | 87.7% | 98.9% | 57.7% | 43.5% | 31.7% | 32.1% | 105% | 105% | 114% | 108% | 113% | 95.1% | 87.8% | 55.7% | 41.1% | 27% | 20.9% | 119% | 125% | 104% | 120% | 121% | 109% | 102% | 79.2% | 51.4% | 41% | 36.1%
6 | NCCCCCC(=O)O | 87.3% | 17% | 101% | 42.8% | 108% | 119% | 111% | 119% | 116% | 107% | 115% | 91.7% | 115% | 104% | 36.5% | 103% | 102% | 111% | 104% | 96.4% | 98% | 97.4% | 35.6% | 9.07% | 101% | 39.5% | 100% | 99.9% | 101% | 100% | 94.3% | 98% | 103%
7 | OC(CCN1CCCCC1)(C2CC\3CC2\C=C3)C4=CC=CC=C4 (centres undefined) | 102% | 110% | 113% | 97.7% | 123% | 120% | 121% | 94.8% | 118% | 129% | 126% | 94.9% | 126% | 115% | 91% | 122% | 119% | 116% | 107% | 123% | 134% | 121% | 104% | 104% | 113% | 70.2% | 129% | 113% | 127% | 120% | 132% | 136% | 131%
8 | CCCC1=N[N](C)C2=C1\N=C(/NC2=O)C3=CC(=CC=C3OCC)[S+]([O-])(=O)N4CCN(C)CC4 | 44.2% | 88.3% | 87.9% | 94.3% | 74% | 88.4% | 79.8% | 80.8% | 87% | 46.3% | 2.85% | 46.9% | 108% | 97.7% | 85.9% | 66.6% | 79.7% | 74% | 78% | 86.9% | 46.2% | 32.2% | 46.1% | 94.2% | 88.5% | 87.4% | 61.7% | 81.2% | 89.9% | 102% | 88.1% | 61.9% | 4.25%

— the supplement of paper PMC11451515
